Assay results as given in BindingDB's records for doi:10.1038/sj.npp.1300819 (Case Western Reserve University, 2006).

Columns and labels:
[1] = target: 5-hydroxytryptamine receptor 1A (Homo sapiens, UniProt P08908)
Histamine H1 receptor = Histamine H1 receptor (Homo sapiens, UniProt P35367)
[2] = target: 5-hydroxytryptamine receptor 2A (Rattus norvegicus, UniProt P14842)
[3] = target: Alpha-1B adrenergic receptor (Homo sapiens, UniProt P35368)
D(1A) dopamine receptor = D(1A) dopamine receptor (Homo sapiens, UniProt P21728)
[4] = target: Alpha-2A adrenergic receptor (Homo sapiens, UniProt P08913)
[5] = target: Sodium-dependent dopamine transporter (Homo sapiens, UniProt Q01959)
[6] = target: 5-hydroxytryptamine receptor 2B (Homo sapiens, UniProt P41595)
[7] = target: Alpha-1A adrenergic receptor (Homo sapiens, UniProt P35348)
[8] = target: Sodium-dependent serotonin transporter (Homo sapiens, UniProt P31645)
[9] = target: Alpha-2C adrenergic receptor (Homo sapiens, UniProt P18825)
[10] = target: 5-hydroxytryptamine receptor 2C (Rattus norvegicus, UniProt P08909)
[11] = target: Sodium-dependent noradrenaline transporter (Homo sapiens, UniProt P23975)
[12] = target: 5-hydroxytryptamine receptor 6 (Homo sapiens, UniProt P50406)
D(4) dopamine receptor = D(4) dopamine receptor (Homo sapiens, UniProt P21917)
D(1B) dopamine receptor = D(1B) dopamine receptor (Homo sapiens, UniProt P21918)
[13] = target: 5-hydroxytryptamine receptor 1B (Rattus norvegicus, UniProt P28564)
[14] = target: Muscarinic acetylcholine receptor M2 (Homo sapiens, UniProt P08172)
[15] = target: 5-hydroxytryptamine receptor 5A (Homo sapiens, UniProt P47898)
[16] = target: Muscarinic acetylcholine receptor M3 (Homo sapiens, UniProt P20309)
[17] = target: Muscarinic acetylcholine receptor M1 (Homo sapiens, UniProt P11229)
[18] = target: Muscarinic acetylcholine receptor M4 (Homo sapiens, UniProt P08173)
D(3) dopamine receptor = D(3) dopamine receptor (Rattus norvegicus, UniProt P19020)
[19] = target: Muscarinic acetylcholine receptor M5 (Homo sapiens, UniProt P08912)

Chain of Sodium-dependent noradrenaline transporter (P23975 whole entry): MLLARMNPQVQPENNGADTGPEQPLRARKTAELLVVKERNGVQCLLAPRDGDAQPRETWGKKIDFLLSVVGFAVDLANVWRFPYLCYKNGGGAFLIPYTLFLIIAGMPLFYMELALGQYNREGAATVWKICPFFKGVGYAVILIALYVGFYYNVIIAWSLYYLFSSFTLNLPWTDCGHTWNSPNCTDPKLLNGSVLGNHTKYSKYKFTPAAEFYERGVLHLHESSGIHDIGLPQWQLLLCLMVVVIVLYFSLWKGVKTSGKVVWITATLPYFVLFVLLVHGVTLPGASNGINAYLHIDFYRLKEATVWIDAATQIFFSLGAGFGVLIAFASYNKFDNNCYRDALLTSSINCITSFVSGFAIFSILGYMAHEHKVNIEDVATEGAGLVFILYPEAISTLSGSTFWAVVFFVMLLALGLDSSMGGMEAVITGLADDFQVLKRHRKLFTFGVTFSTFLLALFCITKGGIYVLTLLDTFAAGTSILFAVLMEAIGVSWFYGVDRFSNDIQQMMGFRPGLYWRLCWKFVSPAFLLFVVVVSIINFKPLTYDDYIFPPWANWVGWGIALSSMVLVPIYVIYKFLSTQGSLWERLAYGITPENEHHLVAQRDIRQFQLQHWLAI
Chain of 5-hydroxytryptamine receptor 2A (P14842 whole entry): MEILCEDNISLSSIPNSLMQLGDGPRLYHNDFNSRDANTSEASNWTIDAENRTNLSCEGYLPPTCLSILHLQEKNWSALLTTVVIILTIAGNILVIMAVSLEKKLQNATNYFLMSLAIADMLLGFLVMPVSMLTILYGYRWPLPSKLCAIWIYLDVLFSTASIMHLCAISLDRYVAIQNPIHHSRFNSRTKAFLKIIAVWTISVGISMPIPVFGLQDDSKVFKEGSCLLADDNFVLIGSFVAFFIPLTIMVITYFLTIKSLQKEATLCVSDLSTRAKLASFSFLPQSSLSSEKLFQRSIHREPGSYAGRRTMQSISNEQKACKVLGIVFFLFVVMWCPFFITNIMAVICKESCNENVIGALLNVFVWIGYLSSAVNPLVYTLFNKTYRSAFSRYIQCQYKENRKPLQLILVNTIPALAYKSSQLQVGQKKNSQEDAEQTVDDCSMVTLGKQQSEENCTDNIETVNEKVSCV
Chain of 5-hydroxytryptamine receptor 2C (P08909 whole entry): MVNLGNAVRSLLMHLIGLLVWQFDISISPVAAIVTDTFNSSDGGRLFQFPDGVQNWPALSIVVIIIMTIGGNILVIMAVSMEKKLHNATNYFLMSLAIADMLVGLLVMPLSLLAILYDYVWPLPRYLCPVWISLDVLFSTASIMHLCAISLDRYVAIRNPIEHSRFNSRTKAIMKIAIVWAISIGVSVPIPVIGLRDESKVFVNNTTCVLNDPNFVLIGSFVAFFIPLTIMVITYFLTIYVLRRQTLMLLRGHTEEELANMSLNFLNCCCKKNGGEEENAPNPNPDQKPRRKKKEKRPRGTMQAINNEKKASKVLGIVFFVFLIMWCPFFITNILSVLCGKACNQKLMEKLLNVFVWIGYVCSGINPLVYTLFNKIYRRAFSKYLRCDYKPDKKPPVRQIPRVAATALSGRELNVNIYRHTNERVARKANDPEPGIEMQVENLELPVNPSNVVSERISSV
Chain of Alpha-2A adrenergic receptor (P08913 whole entry): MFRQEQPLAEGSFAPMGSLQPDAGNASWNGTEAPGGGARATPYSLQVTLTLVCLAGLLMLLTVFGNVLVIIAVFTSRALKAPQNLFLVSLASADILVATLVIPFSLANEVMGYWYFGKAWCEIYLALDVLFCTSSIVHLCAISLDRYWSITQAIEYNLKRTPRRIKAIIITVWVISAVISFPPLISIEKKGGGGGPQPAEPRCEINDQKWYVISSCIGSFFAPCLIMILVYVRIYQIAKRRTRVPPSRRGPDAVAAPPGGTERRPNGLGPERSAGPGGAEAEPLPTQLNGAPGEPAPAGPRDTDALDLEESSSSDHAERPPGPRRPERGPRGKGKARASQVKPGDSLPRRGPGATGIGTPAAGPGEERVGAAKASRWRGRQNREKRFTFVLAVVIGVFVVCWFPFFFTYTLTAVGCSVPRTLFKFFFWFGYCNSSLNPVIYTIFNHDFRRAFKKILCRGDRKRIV
Chain of 5-hydroxytryptamine receptor 1A (P08908 whole entry): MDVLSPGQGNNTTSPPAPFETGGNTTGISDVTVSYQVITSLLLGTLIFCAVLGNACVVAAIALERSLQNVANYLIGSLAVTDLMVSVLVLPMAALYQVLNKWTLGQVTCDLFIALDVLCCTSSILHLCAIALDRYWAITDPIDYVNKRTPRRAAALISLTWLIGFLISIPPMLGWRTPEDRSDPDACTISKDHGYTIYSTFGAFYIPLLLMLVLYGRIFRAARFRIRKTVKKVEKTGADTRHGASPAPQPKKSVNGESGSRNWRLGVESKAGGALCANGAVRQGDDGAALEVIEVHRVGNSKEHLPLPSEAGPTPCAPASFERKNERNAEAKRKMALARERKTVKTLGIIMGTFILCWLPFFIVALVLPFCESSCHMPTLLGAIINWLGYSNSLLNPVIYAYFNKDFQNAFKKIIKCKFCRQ
Chain of Sodium-dependent dopamine transporter (Q01959 whole entry): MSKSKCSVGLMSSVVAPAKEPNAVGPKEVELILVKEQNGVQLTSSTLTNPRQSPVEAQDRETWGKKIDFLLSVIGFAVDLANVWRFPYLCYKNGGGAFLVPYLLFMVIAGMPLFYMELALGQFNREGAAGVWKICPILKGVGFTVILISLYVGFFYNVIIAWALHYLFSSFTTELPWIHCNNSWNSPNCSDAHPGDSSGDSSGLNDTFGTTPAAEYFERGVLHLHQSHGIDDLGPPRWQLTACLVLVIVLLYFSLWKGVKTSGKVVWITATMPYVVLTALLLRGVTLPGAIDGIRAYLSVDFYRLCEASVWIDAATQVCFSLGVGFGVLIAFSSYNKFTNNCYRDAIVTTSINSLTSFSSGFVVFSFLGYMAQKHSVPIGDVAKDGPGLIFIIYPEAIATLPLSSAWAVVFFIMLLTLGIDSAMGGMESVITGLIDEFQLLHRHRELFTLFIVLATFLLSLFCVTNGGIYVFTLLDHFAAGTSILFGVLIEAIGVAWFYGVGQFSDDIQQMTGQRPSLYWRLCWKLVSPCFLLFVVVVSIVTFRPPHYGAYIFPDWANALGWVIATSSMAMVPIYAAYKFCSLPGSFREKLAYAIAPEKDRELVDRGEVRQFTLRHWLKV
Chain of D(1A) dopamine receptor (P21728 whole entry): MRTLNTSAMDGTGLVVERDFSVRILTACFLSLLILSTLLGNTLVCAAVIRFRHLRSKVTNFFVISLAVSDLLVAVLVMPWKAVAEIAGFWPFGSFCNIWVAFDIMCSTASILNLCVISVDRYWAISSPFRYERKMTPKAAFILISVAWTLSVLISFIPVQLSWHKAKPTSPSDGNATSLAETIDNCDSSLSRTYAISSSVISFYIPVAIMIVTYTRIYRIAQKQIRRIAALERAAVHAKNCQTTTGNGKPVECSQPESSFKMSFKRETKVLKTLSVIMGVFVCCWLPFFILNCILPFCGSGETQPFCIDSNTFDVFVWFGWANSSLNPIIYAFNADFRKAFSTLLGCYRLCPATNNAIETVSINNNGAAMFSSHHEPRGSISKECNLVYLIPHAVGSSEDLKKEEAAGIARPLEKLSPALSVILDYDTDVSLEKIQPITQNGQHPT
Chain of 5-hydroxytryptamine receptor 1B (P28564 whole entry): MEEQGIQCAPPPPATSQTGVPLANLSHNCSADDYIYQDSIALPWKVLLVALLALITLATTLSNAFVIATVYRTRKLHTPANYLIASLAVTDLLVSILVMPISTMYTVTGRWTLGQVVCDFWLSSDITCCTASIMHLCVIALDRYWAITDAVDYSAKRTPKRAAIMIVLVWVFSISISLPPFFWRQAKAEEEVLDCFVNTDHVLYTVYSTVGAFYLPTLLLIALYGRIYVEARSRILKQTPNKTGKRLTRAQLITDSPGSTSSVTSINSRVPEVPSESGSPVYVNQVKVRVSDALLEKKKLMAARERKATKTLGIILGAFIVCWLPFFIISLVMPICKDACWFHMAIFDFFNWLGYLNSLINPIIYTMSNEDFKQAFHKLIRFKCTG
Chain of Alpha-2C adrenergic receptor (P18825 whole entry): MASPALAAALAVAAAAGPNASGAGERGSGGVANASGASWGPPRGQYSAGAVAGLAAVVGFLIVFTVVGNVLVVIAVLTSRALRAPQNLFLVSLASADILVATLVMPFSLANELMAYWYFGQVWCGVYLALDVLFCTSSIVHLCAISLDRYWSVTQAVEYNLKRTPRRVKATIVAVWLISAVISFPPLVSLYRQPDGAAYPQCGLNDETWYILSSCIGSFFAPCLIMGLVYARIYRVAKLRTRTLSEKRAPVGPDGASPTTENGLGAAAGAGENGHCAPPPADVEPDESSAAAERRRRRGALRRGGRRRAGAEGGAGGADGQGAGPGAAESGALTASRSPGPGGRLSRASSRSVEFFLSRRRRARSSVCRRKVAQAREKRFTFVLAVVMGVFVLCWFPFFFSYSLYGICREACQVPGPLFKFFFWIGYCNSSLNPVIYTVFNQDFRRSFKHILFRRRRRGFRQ
Chain of 5-hydroxytryptamine receptor 6 (P50406 whole entry): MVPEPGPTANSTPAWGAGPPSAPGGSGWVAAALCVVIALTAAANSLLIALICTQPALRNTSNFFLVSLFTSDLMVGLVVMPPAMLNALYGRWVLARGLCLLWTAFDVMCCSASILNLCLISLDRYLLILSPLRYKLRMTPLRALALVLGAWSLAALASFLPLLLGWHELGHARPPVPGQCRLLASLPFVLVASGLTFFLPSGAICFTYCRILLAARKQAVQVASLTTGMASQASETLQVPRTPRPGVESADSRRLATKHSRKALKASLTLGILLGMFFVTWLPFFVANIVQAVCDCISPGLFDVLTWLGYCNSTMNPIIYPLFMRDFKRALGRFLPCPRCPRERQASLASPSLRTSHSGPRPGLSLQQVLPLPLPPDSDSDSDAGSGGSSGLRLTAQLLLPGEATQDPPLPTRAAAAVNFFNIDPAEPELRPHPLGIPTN

SMILES	Ki [1] [nM]	Ki [2] [nM]	Ki (D(1A) dopamine receptor) [nM]	Ki [4] [nM]	Ki [5] [nM]	Ki [9] [nM]	Ki [10] [nM]	Ki [11] [nM]	Ki [12] [nM]	Ki [13] [nM]	other results
OC(c1ccccc1)C1CCN(CCc2ccccc2)CC1 (centres undefined) [MDL-11939]	3420	2.89	327	1590	> 10000	1190	854	> 10000	2750	70.5	Ki (Histamine H1 receptor): 1600 nM; Ki [3]: 1580 nM; Ki [6]: 1420 nM; Ki [7]: 1880 nM; Ki [8]: 2600 nM; Ki (D(4) dopamine receptor): 3930 nM; Ki (D(1B) dopamine receptor): 2870 nM
CN(C)CCON=C(C=Cc1ccc(O)cc1)c1ccccc1F [NSC_6438382]	2500	0.951	> 10000	726	5620	2120	8.24	739	3870	914	Ki [14]: > 10000 nM; Ki [15]: 1750 nM; Ki [16]: 2390 nM; Ki [17]: 733 nM; Ki [18]: 3670 nM; Ki (D(3) dopamine receptor): > 10000 nM; Ki [19]: 3010 nM
